Values quoted from earlier work, collected in patent US20180344749A1, “CONTROLLED RELEASE FORMULATIONS OF SALICLATE-RELEASING ACTIVES” (Cogwellin, LLC, priority 2015, published 2018).

Tests used:
tau acetylation = conditions: aspirin rapidly loses its acetyl group
acetyltransferase p300 = acetyltransferase p300 (Homo sapiens, UniProt Q09472); conditions: for tau levels: enhance tau turnover
[1] = tested on: PS19 transgenic mouse model of FTD; conditions: administration after disease onset
[2] = not given; remark: listed apart in the source
[3] = in terms of salicylic acid equivalents
[4] = at anti-inflammatory doses

acetyltransferase p300, sequence (Q09472 whole entry): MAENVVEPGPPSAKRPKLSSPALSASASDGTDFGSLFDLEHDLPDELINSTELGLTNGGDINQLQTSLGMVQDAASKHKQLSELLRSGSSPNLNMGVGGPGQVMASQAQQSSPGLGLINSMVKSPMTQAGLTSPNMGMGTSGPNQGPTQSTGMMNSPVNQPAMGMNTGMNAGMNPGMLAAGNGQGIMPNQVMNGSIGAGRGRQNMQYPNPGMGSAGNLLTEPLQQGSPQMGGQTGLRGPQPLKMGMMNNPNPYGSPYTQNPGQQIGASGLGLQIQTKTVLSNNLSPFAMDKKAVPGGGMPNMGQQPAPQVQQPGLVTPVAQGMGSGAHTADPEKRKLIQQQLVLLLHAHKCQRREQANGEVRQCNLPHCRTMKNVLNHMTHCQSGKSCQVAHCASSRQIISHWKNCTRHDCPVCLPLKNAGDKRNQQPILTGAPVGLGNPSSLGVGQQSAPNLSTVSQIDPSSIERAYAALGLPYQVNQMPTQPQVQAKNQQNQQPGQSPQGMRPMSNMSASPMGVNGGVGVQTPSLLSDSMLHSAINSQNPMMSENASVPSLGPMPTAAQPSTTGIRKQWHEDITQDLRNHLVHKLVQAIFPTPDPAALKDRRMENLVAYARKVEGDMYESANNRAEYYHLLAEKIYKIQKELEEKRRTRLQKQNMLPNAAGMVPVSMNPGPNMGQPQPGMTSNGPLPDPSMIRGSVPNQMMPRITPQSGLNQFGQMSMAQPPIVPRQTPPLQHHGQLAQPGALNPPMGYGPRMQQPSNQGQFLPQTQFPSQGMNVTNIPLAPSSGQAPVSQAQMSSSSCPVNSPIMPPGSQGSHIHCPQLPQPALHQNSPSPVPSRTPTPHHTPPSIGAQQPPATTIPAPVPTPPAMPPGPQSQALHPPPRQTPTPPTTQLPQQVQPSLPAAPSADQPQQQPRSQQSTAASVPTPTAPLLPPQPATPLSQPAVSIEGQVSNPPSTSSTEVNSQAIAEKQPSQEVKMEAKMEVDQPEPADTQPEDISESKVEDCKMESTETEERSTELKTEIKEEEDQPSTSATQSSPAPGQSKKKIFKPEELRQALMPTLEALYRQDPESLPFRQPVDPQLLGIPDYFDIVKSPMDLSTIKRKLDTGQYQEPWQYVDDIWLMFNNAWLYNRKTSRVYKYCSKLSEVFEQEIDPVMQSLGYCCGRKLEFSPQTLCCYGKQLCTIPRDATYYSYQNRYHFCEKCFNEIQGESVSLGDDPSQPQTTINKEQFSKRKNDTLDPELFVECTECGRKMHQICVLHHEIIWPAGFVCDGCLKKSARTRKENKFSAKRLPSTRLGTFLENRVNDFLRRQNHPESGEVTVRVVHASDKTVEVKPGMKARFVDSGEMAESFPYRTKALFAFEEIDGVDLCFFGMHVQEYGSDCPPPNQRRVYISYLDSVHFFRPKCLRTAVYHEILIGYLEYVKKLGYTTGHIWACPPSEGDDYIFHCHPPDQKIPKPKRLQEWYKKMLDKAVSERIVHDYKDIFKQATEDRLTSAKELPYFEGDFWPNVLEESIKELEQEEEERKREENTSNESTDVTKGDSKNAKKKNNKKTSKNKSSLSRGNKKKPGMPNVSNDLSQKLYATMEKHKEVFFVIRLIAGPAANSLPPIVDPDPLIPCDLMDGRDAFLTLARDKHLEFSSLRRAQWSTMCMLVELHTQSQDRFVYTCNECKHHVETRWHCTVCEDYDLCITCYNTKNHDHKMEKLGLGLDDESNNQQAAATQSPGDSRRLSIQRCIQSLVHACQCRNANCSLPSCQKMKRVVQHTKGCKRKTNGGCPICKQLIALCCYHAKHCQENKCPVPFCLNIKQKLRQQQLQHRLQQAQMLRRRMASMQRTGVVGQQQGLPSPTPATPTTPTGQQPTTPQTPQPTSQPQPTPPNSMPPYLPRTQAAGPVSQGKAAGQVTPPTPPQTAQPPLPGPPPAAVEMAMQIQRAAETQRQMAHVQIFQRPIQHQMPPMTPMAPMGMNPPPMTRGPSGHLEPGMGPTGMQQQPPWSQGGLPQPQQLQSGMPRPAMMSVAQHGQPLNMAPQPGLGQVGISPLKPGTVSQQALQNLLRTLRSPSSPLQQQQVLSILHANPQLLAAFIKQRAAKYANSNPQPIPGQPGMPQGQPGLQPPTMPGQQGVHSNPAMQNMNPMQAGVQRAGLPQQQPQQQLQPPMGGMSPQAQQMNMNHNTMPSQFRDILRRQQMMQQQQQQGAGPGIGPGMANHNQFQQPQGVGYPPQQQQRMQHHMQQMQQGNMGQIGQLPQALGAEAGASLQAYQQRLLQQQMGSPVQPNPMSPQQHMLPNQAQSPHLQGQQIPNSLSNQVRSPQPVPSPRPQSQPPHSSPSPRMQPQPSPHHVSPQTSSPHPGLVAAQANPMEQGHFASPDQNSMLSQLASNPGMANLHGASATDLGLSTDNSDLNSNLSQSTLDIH

behaviour in the pH of the stomach	acetyltransferase p300-induced tau acetylation (acetyltransferase p300)	tau levels (acetyltransferase p300)	brain penetration ([2]; in vivo)	salicylic acid obtained relative to an equivalent dose of aspirin (relative AUC) [3]	gastrointestinal bleeding and gastric erosions compared with aspirin [4]	solubility in the pH of the small intestine (small intestine pH)	Compound	tau acetylation in cell cultures (tau acetylation)	hippocampal atrophy [1]	levels of total tau and tau acetylated at K174 [1]	p300 activity [1]	tau-induced memory deficits [1]	stability of salicylate levels after salsalate ([2]; over 8 hours)
soluble	–	–	–	–	–	–	CC(=O)Oc1ccccc1C(=O)O [aspirin, acetylsalicylic acid]	boost tau acetylation	–	–	–	–	–
–	inhibited	reduce tau levels	–	–	–	–	O=C(O)c1ccccc1O [salicylate, salicylic acid]	–	–	–	–	–	–
undergoes particulate dispersion	inhibited	reduce tau levels	penetrates the brain	approximately 84%	significantly less	soluble	O=C(Oc1ccccc1C(=O)O)c1ccccc1O [salsalate]	–	prevented	lowered	inhibited p300 activity	rescued	relatively stable salicylate levels over 8 hours
